* marks the point of attachment. Cbz = O=C(OCc1ccccc1)*; CH2F = FC*
What was measured:
[1] = test system: blood samples; assay: Inspection of plasma for hemolysis; type: cell-based, human; details: Example 4: 2.5% and 5% DMPA with caspase inhibitor
Excerpt: The focus of the analysis was the stabilization of the extracellular nucleic acid population as determined by analyzing the increase of 18S rDNA. Shown is the increase of DNA relative to time point 0 with 2.5%, 5% and 7.5% N,N dimethylpropanamide (DMPA) or 5% DMAA with caspase inhibitor (fold change) using different amplicon lengths of 18SrRNA gene. Bars indicate the mean of the triplicate samples per condition and test time point. […] Thus, a stabilization of the extracellular nucleic acid population was achieved. Furthermore, the obtained plasma was inspected in order to analyse whether hemolysis occurred.

[2] = test system: 18S ribosomal DNA; assay: 18S rDNA increase in plasma of stored blood (qPCR, 66 bp and 500 bp amplicons); type: cell-based, human; details: for Released DNA (18S rDNA) after storage: 3 and 6 days RT, vs unstabilized EDTA blood
Experimental: Blood obtained from donors was collected into 10 ml K2 EDTA tubes (BD). 4.5 ml of the respectively collected blood was mixed with 0.9 ml of different stabilization solutions (see below examples on the details of the tested stabilization solutions).
All stabilized blood samples were set up in triplicates per condition and test time point. At time point 0 (reference), immediately after mixing the stabilization solution and blood, plasma was generated and the circulating extracellular DNA was extracted. The residual stabilized blood sample was stored for three days and six days at room temperature.
Plasma was generated from the stabilized and unstabilized (EDTA) blood samples by inverting the blood containing tubes for four times. Then, the tubes were centrifuged for 10 minutes at 1900×g at 4° C. 2.5 ml of the plasma fraction was transferred into a fresh 15 ml falcon tube and centrifuged for 10 minutes at 16.000×g at 4° C. 2 ml of the respectively cleared plasma was used for extracellular nucleic acid isolation using the QIAamp circulating nucleic acid kit (QIAGEN) according to the manufacturer's instructions.
The isolated extracellular DNA was analyzed using two different qPCR assays, targeting different fragment lengths of the 18S ribosomal DNA:
Cycle threshholds of the individual samples were translated into amount of gDNA in the eluate, according to a gDNA standard curve. The gDNA amount of the storage time points was compared to the time zero gDNA level from the same donor and is shown as fold increase in the figures. Especially the increase of the 500 bp fragment in the plasma fraction of the blood sample after storage is an indication for a lysis/destruction of white blood cells. Thus, the lower the amount of released 500 bp DNA, the better the performance of the stabilization method.

[3] = test system: FOS, IL1B, IL8 and TP53 transcripts; assay: Transcript level stabilisation in stored blood, real time RT-PCR; type: cell-based, human; details: blood incubated at RT for 0, 24 and 72 hours; DMPA 5% v/v final in EDTA blood, 5xMOPS pH5.5
Excerpt: A test system and study setup was established that allows the identification of reagent compositions that have gene transcript stabilisation capabilities, as indicated by constant levels of transcripts from selected genes (c-fos, IL-1beta, IL-8, p53). These transcripts were identified in prior studies as very unstable transcripts during storage, which are induced or down regulated (gains and losses of transcripts) within minutes after blood collection and were therefore chosen as “worst case” markers for screening purposes.
Blood was collected from multiple donors into replicate EDTA blood tubes (BD, [−] control of sample stabilisation) and PAXgene Blood RNA Tubes (PreAnalytiX) serving as [+] control of sample stabilisation. PAXgene Blood RNA tubes contain a composition (see also background of the invention) that lysis cells and thereby “freeze” the gene transcription profile. PAXgene Blood RNA tubes are for stabilizing blood for gene expression analysis. One aim was to find stabilization method that not based on cell lysis but achieves the same or similar performance as the PAXgene Blood RNA tubes in transcript level stabilization. […]
Transcript levels of all RNA samples were analysed by real time RT-PCR using monoplex assays of FOS, IL1B, IL8 and TP53, normalized to the amount of template input into the reaction. […]

[4] = test system: CD3 on lymphocytes; assay: aCD3 FACS analysis of cell and cell surface epitope integrity; type: cell-based, human; details: EDTA blood, test solution 5% v/v DMPA, RT 0 h, 24 h, 72 h
Experimental: FIG. 5: Fluorescence activated cell sorting (aCD3 FACS) analysis of sample aliquots from blood collected from one donor into EDTA tubes. Blood aliquots were subjected to FACS using PE-conjugated anti-CD3 antibody from samples that were not incubated after blood collection (0 h) and samples after one and three days of incubation at RT (24 h, 72 h). The number of fluorescence-labelled cells was counted and the intensity of the fluorescence signal per event was quantified. Intensity (x-axis) and number of fluorescence signals (y-axis) are shown as histograms. Thresholds were defined to differentiate unspecific weak fluorescence signals (−) from stronger specific fluorescence signals caused by specifically bound anti-CD3 antibody to cells (+). […]
Cell and cell surface epitope integrity was analysed by fluorescence activated cell sorting (FACS) using fluorescence conjugated anti-CD3 antibody
In addition, cell and cell surface epitope integrity was analysed in the stabilized samples by fluorescence activated cell sorting (FACS). In detail, the presence and accessibility of cell surface proteins was analysed by binding of fluorescence conjugated antibody (PE-labelled anti-CD3) directed against cellular epitope CD3 that is specific for lymphocytes, while other white blood cell subtypes (monocytes, neutrophilic granulocytes) are CD3 negative.

[5] = test system: PKC; details: cited from earlier work
[6] = molecular target: T1, calpain II (Homo sapiens, UniProt P17655); details: irreversible inhibitor; cited from earlier work
T1 sequence (P17655 1-700): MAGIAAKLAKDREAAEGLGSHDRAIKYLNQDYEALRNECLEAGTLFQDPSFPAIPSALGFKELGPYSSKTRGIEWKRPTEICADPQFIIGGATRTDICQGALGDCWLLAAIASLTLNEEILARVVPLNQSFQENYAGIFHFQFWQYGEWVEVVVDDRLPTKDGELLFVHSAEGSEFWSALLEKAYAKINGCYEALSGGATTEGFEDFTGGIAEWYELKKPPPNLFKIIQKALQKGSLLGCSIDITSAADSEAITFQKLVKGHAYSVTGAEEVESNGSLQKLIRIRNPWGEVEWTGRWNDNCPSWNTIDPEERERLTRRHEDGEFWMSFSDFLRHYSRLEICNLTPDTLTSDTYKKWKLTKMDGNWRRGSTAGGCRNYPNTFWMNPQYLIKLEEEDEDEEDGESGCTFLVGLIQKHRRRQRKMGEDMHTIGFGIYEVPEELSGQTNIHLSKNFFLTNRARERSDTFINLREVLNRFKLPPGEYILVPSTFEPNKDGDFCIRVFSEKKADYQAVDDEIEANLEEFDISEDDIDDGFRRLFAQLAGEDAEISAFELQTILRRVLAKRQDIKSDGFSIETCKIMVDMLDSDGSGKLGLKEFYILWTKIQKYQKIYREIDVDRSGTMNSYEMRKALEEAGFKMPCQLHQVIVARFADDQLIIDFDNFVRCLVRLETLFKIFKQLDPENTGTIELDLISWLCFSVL
T1 sequence (P04632 1-268 partner): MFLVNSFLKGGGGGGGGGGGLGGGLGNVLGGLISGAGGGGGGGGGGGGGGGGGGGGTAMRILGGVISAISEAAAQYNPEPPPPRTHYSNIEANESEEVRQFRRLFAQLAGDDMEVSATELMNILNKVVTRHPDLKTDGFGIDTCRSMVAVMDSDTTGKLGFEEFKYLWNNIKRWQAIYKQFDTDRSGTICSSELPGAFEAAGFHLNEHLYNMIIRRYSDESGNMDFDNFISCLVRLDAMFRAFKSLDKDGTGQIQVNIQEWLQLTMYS

[7] = test system: cells; details: cited from earlier work

In the case of CCC(=O)N(C)C [DMPA, N,N-dimethylpropanamide], the “Hemolysis in plasma obtained from stabilized blood” value [1] was “did not show signs of hemolysis”, the “Increase in 18S rDNA relative to time point 0” value ([2]; Example 2: DMPA […], 2% or 2.5% without caspase inhibitor, 7.2 mg K2 EDTA/ml, RT up to 6 days, vs EDTA blood) was “significantly reduced increase in 18S rDNA” and the “Released DNA (18S rDNA) after storage” value ([2]; Example 3: 2.5%, 5% or 7.5% (v/v) with 1 μM Quinoline-Val-Asp-CH2-OPH and K2 EDTA) was “significantly lower amounts of released DNA”. The “Released DNA (18S rDNA) after storage” value ([2]; Example 4: 2.5%, 5% or 7.5% DMPA with 1 μM caspase inhibitor, 7.2 mg K2 EDTA/ml) was “significantly lower amounts of released DNA”, the “Increase in 18S rDNA relative to time point 0” value ([2]; Example 5: DMPA in different concentrations with 1 μM caspase inhibitor, 7.2 mg K2 EDTA/ml) was “significantly reduced increase in 18S rDNA” and the “Relative transcript levels of FOS, IL1B, IL8 and TP53 (CT values) over storage” value [3] was “stabilised expression levels”. For the same compound, the “Detection of lymphocytes by PE-conjugated anti-CD3 FACS” value [4] was “detectable for up to three days”.

In the case of O=c1c(O)c(-c2ccc(O)c(O)c2)oc2cc(O)cc(O)c12 [Quercetin], the “IC50 PKC” value [5] is given as 15 μg/ml. It strongly abrogated PI3K and Src kinases, mildly.

In the case of “Cbz-Leu-Leu-Tyr-CH2F [Calpain Inhibitor IV]”, the “k2 calpain II” value [6] is listed as “= 28,900 M-1s-1). Also acts as an inhibitor of cathepsin L (k2 =”.

In the case of Cbz-Val-Ala-Asp-CH2F, the Cytotoxicity [7] is listed as “no added cytotoxic effects”.
